Measurements as given in US20070059708A1, “Gene screen” (priority 2003, published 2007).

Tested on: HT29 cells
Experiment: Optimisation of HT29 cell growth in butyrate as sole extraneous carbon source (cell counts)
Assay type: cell-based, human
Conditions: HT29 colon carcinoma cells, DMEM without glucose, multiple concentrations compared
Experimental: We have compared the expression profiles of colon cells growing in either glucose or butyrate as a carbon source. HT 29 colon carcinoma cells were cultured in DMEM medium (Gibco) in the presence of 10% foetal calf serum, penicillin and streptomycin. Cells were either cultured in glucose alone as the sole carbon source, or in butyrate as the sole extraneous provided carbon source. […] Cells were cultured in either medium for multiple passages (typically 4). RNA was extracted from cells grown in each condition and used to probe an Affymetrix human 12 k array. The expression profile of cells cultured in each condition was compared and genes altered in expression by more than 2 fold are listed in Table 2.
HT29 cells were seeded out into 19 wells (in 6 well plates) at a cell density of 0.5×10^6 cells per well (i.e. 500 000 cells per well) deduced with the aid of a Haemocytometer (Improved Neubauer). These cells were taken from T75-0.2 mM butyrate (NaB) DMEM flasks and allowed to adhere to the 6-well plates over 72 hrs also in 0.2 mM NaB DMEM with FCS and Penicillin/Streptomycin antibiotics. […]

## CCCC(=O)[O-].[Na+] [butyrate, Sodium Butyrate]
  butyrate concentration optimal for cell culture: 2 mM
